Data set [1] can be described thus: Selectivity index, ratio of CC50 for human HepG2(2.2.15) cells to IC50 for HBsAg antigen secretion in HBV infected in human HepG2(2.2.15) cells. The data set is classed as functional.
Data set [2] concerns Hepatitis B virus. The experiment in a line: Antiviral activity against HBV infected in human HepG2(2.2.15) cells assessed as reduction in HBeAg antigen secretion after 72 hrs by ELISA. Conditions: HepG2 2.2.15, 72 h. The data set is classed as functional, organism-based. On the technique in general: In an ELISA, binding on a coated surface is turned into a signal by an enzyme label.

Data set [3] can be described thus: Cytotoxicity in human HepG2(2.2.15) cells after 72 hrs by MTT assay. The data set is classed as cell-based. A general note: Formazan colour is commonly taken as a measure of viable cells.
Data set [4] in a line: Selectivity index, ratio of CC50 for human HepG2(2.2.15) cells to IC50 for HBeAg antigen secretion in HBV infected in human HepG2(2.2.15) cells. The data set is classed as functional.
The subject of data set [5] is Hepatitis B virus. The experiment in a line: Antiviral activity against HBV infected in human HepG2(2.2.15) cells assessed as reduction in HBsAg antigen secretion after 72 hrs by ELISA. The data set is classed as functional, organism-based. Conditions: HepG2 2.2.15, 72 h.

Experimental findings from ChEMBL document CHEMBL1817662, “Swerilactones L-O, secoiridoids with C₁₂ and C₁₃ skeletons from Swertia mileensis” (J Nat Prod, 2011) are described below.

Each structure is given as a SMILES string.

For orientation: IC50 means the concentration at which inhibition is half-maximal. By CC50 is commonly meant the concentration that lowers cell viability or growth by half. High values mean better tolerance by the cells, low ones harm at low concentration. Turning to `CC(=O)c1cc2c(c([C@H](C)O)c1)CCOC2=O` [Swerilactone M], the “Ratio CC50/IC50” value in data set [1] is listed as 1.53; in data set [4], below 1. Also, the IC50 in data set [2] was above 2690 µM; in data set [5] it was 1200 µM. Moreover, in data set [3], half-maximal cytotoxicity (CC50 at 72 h) was put at 1840 µM.
`Nc1ccn([C@@H]2CS[C@H](CO)O2)c(=O)n1` [LAMIVUDINE]: the CC50 at 72 h in data set [3] worked out at 33200 µM. The “Ratio CC50/IC50” value in data set [4] was 1.1.
As for `CC(=O)C[C@H](O)c1cccc2c1CCOC2=O` [Swerilactone N], the IC50 in data set [2] and in data set [5] was above 510 µM throughout. Also, the CC50 at 72 h in data set [3] was above 510 µM.
On to `CC(=O)/C=C/c1cccc2c1CCOC2=O` [Swerilactone O], for which the IC50 in data set [2] and in data set [5] was above 1440 µM throughout. Further, in data set [3], the CC50 at 72 h was above 1440 µM.
With `CC(=O)C[C@@H]1O[C@@H](C)C(=O)C2=C1C(=O)OCC2` [Swerilactone L], the “Ratio CC50/IC50” value is listed as below 1 in data set [1] and 1.62 in data set [4]. Further, the IC50 in data set [2] amounted to 880 µM; in data set [5], 1470 µM. Moreover, in data set [3], the CC50 at 72 h is 1430 µM.
